Assay results from patent EP2052721A1, “Use of carnosol for cartilage repair” (DSM IP Assets B.V., priority 2007, dated 2009).
Entries after “also recorded” stand apart in the source; their conditions may differ. Like-named read-outs stand apart in the source and are kept apart here.

Columns and labels:
SOX-5 = test: Anabolic gene expression in normal human primary chondrocytes, quantitative real-time PCR (SOX-5); assay type: cell-based; conditions: carnosol at 1 µmol/L; for activity at 1 µM: Chondrocyte, normal human chondrocytes (knee), differentiation medium
Experimental: (§1) Influence of carnosol on the expression of genes involved in the build-up and break-down of cartilage. Carnosol of >= 95% purity prepared as disclosed in example 1 was used.
(§2) The effect of carnosol on the expression of human collagen, aggrecan and MMP genes was measured in vitro in normal human chondrocytes (derived from knee). Control experiments without carnosol were done concomitantly to compare the expression of these genes or proteins to that in un-stimulated cells. The effect of carnosol (at 1 µmol/L) on the expression of anabolic genes (see Table B) was measured in normal human chondrocytes obtained from the knee of healthy donors (HNAC-kn, Cambrex, #CC2250). These primary chondrocytes were passaged in vitro not more than 4 times, before being used for experiments. Cells were cultured in differentiation medium (Cambrex, #CC.3225) for 5 - 10 days. Total RNA was extracted from cultured cells and reverse-transcribed; expression levels of distinct genes were determined by quantitative real-time PCR as detailed by Richard et al. Mol. Nutr. Food Res. 49, 431-442, (2005).
(§3) Effect of carnosol on anabolic gene expression in normal human primary chondrocytes Numbers indicate the level of gene expression (in % of control-treated cells)

Collagen I = test: Anabolic gene expression in normal human primary chondrocytes, quantitative real-time PCR (collagen I); assay type: cell-based; conditions: carnosol at 1 µmol/L; for activity at 1 µM: Chondrocyte, normal human chondrocytes (knee), differentiation medium
Experimental: as §1, §2, §3

Collagen II [1] = test: Cellular collagen II production in chondrocytes, ELISA; assay type: cell-based, human; conditions: 20 µmol/L carnosol; for Effect of carnosol on protein expression: 10 days of culture, collagen II, result in words
Experimental: The increased build-up of the ECM has been directly shown by measuring the production of collagen II. To this aim, chondrocytes were cultured in differentiation medium containing 20 µmol/L carnosol for 10 days. Cellular collagen II was then quantified by enzyme linked immunosorbent assay (ELISA). […]

SOX-9 = test: Anabolic gene expression in normal human primary chondrocytes, quantitative real-time PCR (SOX-9); assay type: cell-based; conditions: carnosol at 1 µmol/L
Experimental: as §1, §2, §3

Collagen II [2] = test: Anabolic gene expression in normal human primary chondrocytes, quantitative real-time PCR (collagen II); assay type: cell-based; conditions: carnosol at 1 µmol/L; for activity at 1 µM: Chondrocyte, normal human chondrocytes (knee), differentiation medium
Experimental: as §1, §2, §3

Aggrecan = test: Anabolic gene expression in normal human primary chondrocytes, quantitative real-time PCR (aggrecan); assay type: cell-based; conditions: carnosol at 1 µmol/L; for activity at 1 µM: Chondrocyte, normal human chondrocytes (knee), differentiation medium
Experimental: as §1, §2, §3

[3] = normal human chondrocytes, result in words

## CC(C)c1cc2c(c(O)c1O)[C@@]13CCCC(C)(C)[C@@H]1C[C@@H]2OC3=O [Carnosol, 2H-9,4a-(Epoxymethano)phenanthren-12-one]
SOX-5; 120 h, 5 days culture, read-out: level of gene expression, SOX-5, 5 days culture
  activity at 1 µM: 85%
SOX-5; 240 h, 10 days culture, read-out: level of gene expression, SOX-5, 10 days culture
  activity at 1 µM: 126%
SOX-5; [3]
  effect of carnosol on gene expression, SOX-5: enhanced; also recorded: Increased
Collagen I; 120 h, 5 days culture, read-out: level of gene expression, Collagen I, 5 days culture
  activity at 1 µM: 207%
Collagen I; 240 h, 10 days culture, read-out: level of gene expression, Collagen I, 10 days culture
  activity at 1 µM: 98%
Collagen I; [3]
  effect of carnosol on gene expression, Collagen I: Increased
Collagen II [1]
  Effect of carnosol on protein expression: Increased
Collagen II [1]; listed as carnosol
  Effect of carnosol on protein expression: significantly increased
Collagen II [1]; Homo sapiens, Chondrocyte, 240 h, 10 days of culture in differentiation medium, cellular collagen II by ELISA, vehicle = 100
  activity at 20 µM: 129%
SOX-9; Chondrocyte, 120 h, normal human chondrocytes (knee), differentiation medium, 5 days culture, read-out: level of gene expression, SOX-9, 5 days culture
  mrna remaining at 1 µM: 112%
SOX-9; Chondrocyte, 240 h, normal human chondrocytes (knee), differentiation medium, 10 days culture, read-out: level of gene expression, SOX-9, 10 days culture
  SOX-9 gene expression, % of control at 1 µM: 93%
SOX-9; [3]
  effect of carnosol on gene expression, SOX-9: enhanced; also recorded: Increased
Collagen II [2]; 120 h, 5 days culture, read-out: level of gene expression, Collagen II, 5 days culture
  activity at 1 µM: 128%
Collagen II [2]; 240 h, 10 days culture, read-out: level of gene expression, Collagen II, 10 days culture
  activity at 1 µM: 189%
Collagen II [2]; [3]
  effect of carnosol on gene expression, Collagen II: substantially increased
Aggrecan; 120 h, 5 days culture, read-out: level of gene expression, Aggrecan, 5 days culture
  activity at 1 µM: 139%
Aggrecan; 240 h, 10 days culture, read-out: level of gene expression, Aggrecan, 10 days culture
  activity at 1 µM: 97%
Aggrecan; [3]
  effect of carnosol on gene expression, Aggrecan: substantially increased
